± gives the uncertainty stated by the source.
Assay: xn = mol fraction of the nth substance listed

CCCCCCCCCCCCCC + CCCCCO
viscosity [mPa·s], 101.33 kPa
Conditions	x1 = 0.0999	x1 = 0.2002	x1 = 0.3001	x1 = 0.3987	x1 = 0.5009	x1 = 0.6004	x1 = 0.6996	x1 = 0.8014	x1 = 0.9002
293.15 K	3.262 ± 0.33	2.941 ± 0.3	2.698 ± 0.27	2.52 ± 0.25	2.396 ± 0.24	2.31 ± 0.23	2.26 ± 0.23	2.234 ± 0.22	2.243 ± 0.23
303.15 K	2.499 ± 0.25	2.274 ± 0.23	2.103 ± 0.21	1.982 ± 0.2	1.896 ± 0.19	1.845 ± 0.19	1.82 ± 0.18	1.817 ± 0.18	1.829 ± 0.18
313.15 K	1.963 ± 0.2	1.797 ± 0.18	1.674 ± 0.17	1.588 ± 0.16	1.531 ± 0.15	1.5 ± 0.15	1.491 ± 0.15	1.501 ± 0.15	1.519 ± 0.15
323.15 K	1.556 ± 0.16	1.441 ± 0.14	1.353 ± 0.14	1.297 ± 0.13	1.259 ± 0.13	1.241 ± 0.12	1.246 ± 0.13	1.262 ± 0.13	1.285 ± 0.13

O=[N+]([O-])c1ccccc1 + CCCCOC(C)=O
viscosity [mPa·s], 101 kPa
Conditions	298.15 K	308.15 K
x2 = 0.0477	1.576 ± 0.009	1.399 ± 0.008
x2 = 0.151	1.23 ± 0.007	1.152 ± 0.007
x2 = 0.2493	1.006 ± 0.006	0.979 ± 0.006
x2 = 0.35	0.848 ± 0.006	0.849 ± 0.006
x2 = 0.4488	0.743 ± 0.005	0.755 ± 0.005
x2 = 0.5	0.704 ± 0.005	0.717 ± 0.005
x2 = 0.5514	0.672 ± 0.005	0.685 ± 0.005
x2 = 0.6512	0.632 ± 0.005	0.637 ± 0.005
x2 = 0.7484	0.616 ± 0.005	0.607 ± 0.005
x2 = 0.8504	0.622 ± 0.005	0.591 ± 0.005
x2 = 0.9435	0.648 ± 0.005	0.589 ± 0.005

CCCCCO + OCCO
293.15 K, 101.33 kPa
Conditions	viscosity [mPa·s]
x2 = 0.0857	4.274 ± 0.037
x2 = 0.1963	4.916 ± 0.042
x2 = 0.2991	5.66 ± 0.045
x2 = 0.3697	6.324 ± 0.049
x2 = 0.4694	7.484 ± 0.056
x2 = 0.5395	8.676 ± 0.062
x2 = 0.5964	9.655 ± 0.068
x2 = 0.713	12.32 ± 0.082
x2 = 0.7884	14.03 ± 0.091
x2 = 0.8506	15.9 ± 0.1
x2 = 0.9407	18.94 ± 0.12

C1CCC2CCCCC2C1 (stereo not drawn) + CC12CC3CC(C1)CC(C)(C3)C2
viscosity [mPa·s], 100 kPa
Conditions	x2 = 0.1034	x2 = 0.2043	x2 = 0.305	x2 = 0.4034	x2 = 0.5024	x2 = 0.6048	x2 = 0.7046	x2 = 0.8094	x2 = 0.9013
293.15 K	2.607 ± 0.014	2.713 ± 0.014	2.812 ± 0.014	2.919 ± 0.014	3.039 ± 0.015	3.167 ± 0.015	3.31 ± 0.016	3.465 ± 0.016	3.622 ± 0.016
298.15 K	2.361 ± 0.013	2.449 ± 0.013	2.53 ± 0.01	2.628 ± 0.014	2.728 ± 0.014	2.844 ± 0.014	2.967 ± 0.015	3.102 ± 0.015	3.237 ± 0.015
303.15 K	2.148 ± 0.013	2.227 ± 0.013	2.299 ± 0.013	2.384 ± 0.013	2.468 ± 0.013	2.57 ± 0.014	2.675 ± 0.014	2.799 ± 0.014	2.909 ± 0.015
313.15 K	1.802 ± 0.012	1.86 ± 0.012	1.917 ± 0.012	1.98 ± 0.012	2.046 ± 0.012	2.125 ± 0.013	2.206 ± 0.013	2.298 ± 0.013	2.385 ± 0.013
323.15 K	1.505 ± 0.011	1.547 ± 0.011	1.592 ± 0.011	1.641 ± 0.012	1.697 ± 0.012	1.759 ± 0.012	1.825 ± 0.012	1.902 ± 0.012	1.974 ± 0.012

O=[N+]([O-])c1ccccc1 + COC(C)=O
viscosity [mPa·s], 101 kPa
Conditions	298.15 K	308.15 K
x2 = 0.0418	1.689 ± 0.01	1.459 ± 0.009
x2 = 0.1491	1.449 ± 0.009	1.261 ± 0.008
x2 = 0.2508	1.25 ± 0.008	1.095 ± 0.007
x2 = 0.3515	1.076 ± 0.007	0.949 ± 0.006
x2 = 0.4403	0.941 ± 0.006	0.834 ± 0.006
x2 = 0.4882	0.875 ± 0.006	0.777 ± 0.005
x2 = 0.5492	0.796 ± 0.006	0.71 ± 0.005
x2 = 0.649	0.681 ± 0.005	0.611 ± 0.005
x2 = 0.7499	0.58 ± 0.005	0.523 ± 0.004
x2 = 0.8513	0.492 ± 0.004	0.446 ± 0.004
x2 = 0.9379	0.426 ± 0.004	0.388 ± 0.004

ClC(Cl)=C(Cl)Cl + Cc1ccccc1
303.15 K, 101 kPa
Conditions	viscosity [mPa·s]
x1 = 0.1502	0.551 ± 0.013
x1 = 0.2552	0.574 ± 0.006
x1 = 0.2612	0.574 ± 0.012
x1 = 0.3392	0.597 ± 0.006
x1 = 0.3745	0.599 ± 0.012
x1 = 0.4608	0.621 ± 0.006
x1 = 0.4715	0.629 ± 0.011
x1 = 0.5666	0.662 ± 0.01
x1 = 0.5759	0.652 ± 0.006
x1 = 0.6428	0.691 ± 0.01
x1 = 0.6834	0.688 ± 0.007
x1 = 0.6905	0.708 ± 0.01
x1 = 0.7448	0.706 ± 0.007
x1 = 0.7529	0.73 ± 0.009
x1 = 0.8376	0.76 ± 0.009
x1 = 0.8395	0.738 ± 0.007
x1 = 0.9336	0.793 ± 0.008

— the CheMixHub viscosity set
